The source of these data is ChEMBL document CHEMBL4152338, “Design, synthesis and screening of 1, 2, 4-triazinone derivatives as potential antitumor agents with apoptosis inducing activity on MCF-7 breast cancer cell line” (Eur J Med Chem, 2018).

The first assay has as its system MCF7. As to the kind of experiment: Antiproliferative activity against human MCF7 cells after 48 hrs by MTT assay. In kind it is functional, cell-based. As to conditions: MCF7, 48 h.
`COc1ccc(C(=O)N/C(=C/c2cc(Br)cc(Br)c2OC(C)=O)C(=O)NNC(N)=S)cc1OC` registered an IC50 of 8.97 µM. In other words, the single-digit micromolar range.

Turning to `COc1ccc(C2=N/C(=C\c3cc(Br)cc(Br)c3OC(C)=O)C(=O)NN2c2ccccc2)cc1OC`, the IC50 was 5.39 µM.

In turn, `CC(=O)Oc1c(Br)cc(Br)cc1/C=C1\N=C(c2ccccc2)n2c(=S)nc(C)n2C1=O` showed an IC50 above 100 µM.

Regarding `COc1cc(C2=N/C(=C\c3cc(Br)cc(Br)c3OC(C)=O)C(=O)NN2c2ncc(-c3ccc(Br)cc3)s2)cc(OC)c1OC`, 3.16 µM corresponded to half-maximal inhibition (IC50).

In turn, `COc1ccc(C2=N/C(=C\c3cc(Br)cc(Br)c3OC(C)=O)C(=O)NN2c2ncc(-c3ccc(Br)cc3)s2)cc1OC` came in with an IC50 of 3.28 µM.

Turning to `CC(=O)Oc1c(Br)cc(Br)cc1/C=C1\N=C(c2ccccc2)N(c2ncc(-c3ccc(Br)cc3)s2)NC1=O`, inhibition was half-maximal at 9.49 µM (IC50). This IC50 lies about 2.9-fold higher than the previous one.

`COc1ccc(C2=N/C(=C\c3cc(Br)cc(Br)c3OC(C)=O)C(=O)n3c(C)nc(=S)n32)cc1OC` registered an IC50 of 6.84 µM.

Take `CC(=O)Oc1c(Br)cc(Br)cc1/C=C1\N=C(c2ccccc2)N(C(N)=S)NC1=O`: the IC50 came to 28.5 µM.

`CC(=O)Oc1c(Br)cc(Br)cc1/C=C1\N=C(c2ccccc2)N(c2ccccc2)NC1=O` had an IC50 of 19.4 µM.

Turning to `CC(=O)Oc1c(Br)cc(Br)cc1/C=C1\N=C(c2ccccc2)N(c2ncc(-c3ccccc3)s2)NC1=O`, the IC50 was found to be 38.3 µM.

Test system in the next assay: not listed separately
The assay can be described thus: Antiproliferative activity against human Hs 371.T cells after 48 hrs by MTT assay. Format: cell-based.
Conditions: not given
`CC(=O)Oc1c(Br)cc(Br)cc1/C=C1\N=C(c2ccccc2)N(C(N)=S)NC1=O` had an IC50 of 80.1 µM.
